Measured values reported in ChEMBL document CHEMBL1201862, “PubChem BioAssay data set” (2004).
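A five-concentration, 48-hour dose response in 96-well plates underlies each endpoint, interpolated linearly between surrounding concentrations. GI50 marks 50% less growth.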 Active and inactive are the calls of the source. Rule as the data show it: active = GI50 up to about 1.1 µM and inactive = higher.

How the values were obtained:
Assay in all cases: DTP human tumour cell line panel, 48 h
[1] = test system: MOLT-4
[2] = test system: SF-268
[3] = test system: SK-MEL-28
[4] = test system: NCI-H23
[5] = test system: OVCAR-4
[6] = test system: NCI-H460
[7] = test system: OVCAR-8
[8] = test system: SF-539
[9] = test system: SK-MEL-2
[10] = test system: U-251
[11] = test system: A498
[12] = test system: LOX IMVI
[13] = test system: CAKI-1
[14] = test system: HOP-62
[15] = test system: SR

Measured: GI50

N#Cc1c2nc3ccccc3nc2n2ccc3ccccc3c12
inactive: [1] > 100 µM | [2] > 100 µM | [3] > 100 µM | [4] 68.4 µM | [5] > 100 µM | [6] > 100 µM | [7] > 100 µM | [8] > 100 µM | [9] > 100 µM | [10] > 100 µM

COC(=O)C1=C(C(=O)OC)C2(OC(C)=O)c3ccccc3-c3ccccc3C12 (stereo not drawn)
inactive: [1] 1.96 µM | [11] 18.1 µM | [2] 7.62 µM | [3] 5.27 µM | [4] 11.5 µM | [12] 5.09 µM | [5] 2.47 µM | [6] 17 µM | [13] 2.16 µM | [7] 5.93 µM | [14] 20 µM | [8] 17.2 µM | [9] 14.5 µM | [10] 7.87 µM | [15] 2.33 µM

CCCCN(CCCC)c1c([N+](=O)[O-])c(=O)nc2ccccn12
inactive: [1] 37.7 µM | [11] 22.3 µM | [2] 29.3 µM | [3] 13.7 µM | [4] 30.8 µM | [6] 24.8 µM | [13] > 10 µM | [7] 27.5 µM | [14] 32.6 µM | [8] 31.4 µM | [9] 31 µM | [10] 38.8 µM | [15] 38.5 µM

CC[C@H](C)[C@H]1NC(=O)C(C(C)=O)=C1O
inactive: [1] > 100 µM | [11] > 100 µM | [2] 55.2 µM | [3] 64 µM | [4] > 100 µM | [12] 62.4 µM | [5] 95.9 µM | [6] 80 µM | [13] > 100 µM | [7] > 100 µM | [14] > 100 µM | [8] > 100 µM | [9] 95.3 µM | [10] 52.7 µM | [15] 58.3 µM

CCOC(=O)C(=O)C(C#N)c1ccc(Cl)cc1 (stereo not drawn)
inactive: [1] > 100 µM | [11] > 100 µM | [2] > 100 µM | [3] > 100 µM | [4] > 100 µM | [12] > 100 µM | [5] > 100 µM | [6] > 100 µM | [13] > 100 µM | [7] > 100 µM | [14] > 100 µM | [8] > 100 µM | [9] > 100 µM | [10] > 100 µM

CC(=O)N/C(=C\c1cccc([N+](=O)[O-])c1)c1nc2ccc3c(c2[nH]1)C(=O)c1ccccc1C3=O
inactive: [1] 8.04 µM | [11] 22.8 µM | [2] 13.6 µM | [3] > 100 µM | [4] 39.8 µM | [12] 13.3 µM | [5] > 65.9 µM | [6] 27.2 µM | [13] 11.7 µM | [7] 43.6 µM | [14] 78 µM | [8] 42 µM | [9] 50.2 µM | [10] 45.6 µM | [15] 6.97 µM

CC1=C(CO)C(=O)OC(C(C)C2CCC3C4CC5OC56C(O)C(N5CC5)=CC(=O)C6(C)C4CCC23C)C1 (stereo not drawn)
inactive: [1] 1.95 µM | [11] 2.11 µM | [2] 3.81 µM | [3] 16 µM | [4] 2.35 µM | [12] 14 µM | [5] 7.19 µM | [6] 9.44 µM | [7] 2.2 µM | [14] 18.5 µM | [8] 3.66 µM | [9] 5.73 µM | [10] 4.22 µM | [15] 2.77 µM

CCOC(=O)NC(=O)c1c[nH]c(=O)[nH]c1=O
inactive: [1] > 100 µM | [11] > 100 µM | [3] > 100 µM | [4] > 100 µM | [12] > 100 µM | [5] > 100 µM | [6] > 100 µM | [13] > 100 µM | [7] > 100 µM | [14] > 100 µM | [8] > 100 µM | [9] > 100 µM | [10] > 100 µM | [15] > 100 µM

O=C(CC1(O)C(=O)Nc2c(Cl)cc(Cl)cc21)c1ccc2ccccc2c1 (stereo not drawn)
inactive: [1] 6.24 µM | [11] 11.3 µM | [2] 12.2 µM | [3] 10.7 µM | [4] 7.33 µM | [12] 10.5 µM | [5] 13.6 µM | [6] 4.7 µM | [13] 5.7 µM | [7] 10.6 µM | [14] 7.83 µM | [8] 8.17 µM | [9] 2.48 µM | [10] 6.92 µM

CN(C)c1ccc(/C=c2\sc3nnc(Cc4ccccc4)n3c2=O)cc1
inactive: [1] > 10 µM | [11] > 10 µM | [2] 28.3 µM | [3] > 10 µM | [4] > 10 µM | [12] > 10 µM | [5] > 10 µM | [6] > 10 µM | [13] > 10 µM | [7] > 10 µM | [14] > 10 µM | [8] > 10 µM | [9] > 10 µM | [10] > 10 µM | [15] > 10 µM

N#Cc1cccc(/C=N/N/C(N)=N/O)c1
inactive: [11] 33.3 µM | [2] 26.3 µM | [3] > 100 µM | [4] 97.9 µM | [12] 21.2 µM | [5] 20.9 µM | [6] 32.1 µM | [13] 17.1 µM | [7] 78.3 µM | [14] 92.7 µM | [8] > 100 µM | [9] 72.6 µM | [10] 59.6 µM | [15] 48.1 µM

CC(C)N(C(=O)c1cccc(C(=O)N(C(C)C)C(C)C)c1)C(C)C
inactive: [1] > 100 µM | [11] > 100 µM | [2] > 100 µM | [3] > 100 µM | [4] > 100 µM | [12] > 100 µM | [5] > 100 µM | [6] > 100 µM | [13] > 100 µM | [7] > 100 µM | [14] > 100 µM | [8] > 100 µM | [9] > 100 µM | [10] > 100 µM | [15] 20.1 µM

Cc1ccc(-c2cc(-c3ccccc3)c(C#N)c(=O)n2C2OC(CO)C(O)C(O)C2O)cc1 (stereo not drawn)
inactive: [1] 21.1 µM | [11] > 100 µM | [2] > 100 µM | [3] > 100 µM | [4] > 100 µM | [12] > 100 µM | [5] > 100 µM | [6] > 100 µM | [7] > 100 µM | [14] > 100 µM | [8] > 100 µM | [10] > 100 µM

CC(C)Cc1ccc(C(C)/C=C2\CCC(CN3CCCC3)C2=O)cc1 (stereo not drawn)
inactive: [1] 2.67 µM | [11] 21.6 µM | [2] 3.98 µM | [3] 14.6 µM | [4] 11.5 µM | [12] 2.88 µM | [5] 13.3 µM | [6] 17.7 µM | [13] 13.6 µM | [7] 7.01 µM | [14] 12.3 µM | [8] 5.81 µM | [9] 17.7 µM | [10] 5.87 µM | [15] 1.76 µM

COc1cc2ccc(CC#N)cc2cc1OC
inactive: [1] > 100 µM | [11] > 100 µM | [2] > 100 µM | [3] > 100 µM | [4] > 100 µM | [12] > 100 µM | [5] 93.5 µM | [6] > 100 µM | [13] 45.9 µM | [7] > 100 µM | [14] > 100 µM | [8] > 100 µM | [9] > 100 µM | [10] > 100 µM | [15] > 100 µM

Cc1cc(C)nc(NS(=O)(=O)c2ccc(NC(=O)c3ccc(Cl)c4c(Nc5ccc(S(=O)(=O)N=C(N)N)cc5)c5ccccc5nc34)cc2)n1
inactive: [1] 19.5 µM | [11] > 100 µM | [2] 35.1 µM | [3] 58.9 µM | [4] 3.91 µM | [12] 17.8 µM | [5] 59.2 µM | [6] > 10 µM | [13] > 100 µM | [7] 8.65 µM | [14] > 100 µM | [8] 34 µM | [10] 34.8 µM

CCOC(=O)C1(C)CCC(C(C(=O)O)C(=O)O)CC1=O (stereo not drawn)
inactive: [1] > 100 µM | [11] > 100 µM | [2] > 100 µM | [3] > 100 µM | [12] > 100 µM | [5] > 100 µM | [6] > 100 µM | [13] > 100 µM | [7] > 100 µM | [14] > 100 µM | [8] > 100 µM | [10] > 100 µM | [15] > 100 µM

CCC12CCCN(Cc3ccccc3)C1c1c(n(C)c3ccccc13)C(CO)C2 (stereo not drawn)
inactive: [1] 22.4 µM | [2] 114 µM | [3] 61 µM | [4] 52.2 µM | [12] 41.9 µM | [6] 39.5 µM | [13] 92.7 µM | [7] 63.4 µM | [14] 37.6 µM | [8] 37.6 µM | [9] 55.7 µM | [10] 49.3 µM | [15] 25.5 µM

O=C(Oc1ccc(Cl)cc1[N+](=O)[O-])c1ccccc1
inactive: [1] > 100 µM | [11] > 100 µM | [2] > 100 µM | [3] > 100 µM | [4] 69.2 µM | [12] > 100 µM | [5] 43.4 µM | [6] > 100 µM | [7] > 100 µM | [14] > 100 µM | [8] > 100 µM | [9] > 100 µM | [10] 38.5 µM | [15] > 100 µM
